Literature values in article PMC12181400, “Leveraging viral genome sequences and machine learning models for identification of potentially selective antiviral agents” (Communications Chemistry, 2025).
Counter-ions that a name gives are not always drawn. Like-named read-outs stand apart in the source and are kept apart here.

What was measured:
Settings in all cases: cited from earlier work
[1] = system: cell viability (tox21-ap1-agonist-p1)
[2] = system: cell viability (tox21-ar-mda-kb2-luc-agonist-p3)
[3] = system: cell viability (tox21-are-bla-p1)
[4] = system: cell viability (tox21-ar-mda-kb2-luc-antagonist-p2)
[5] = system: cell viability (tox21-car-antagonist-p1)
[6] = system: cell viability (tox21-car-agonist-p1)
[7] = curve rank −9 to 9, 0 = inactive, ref NCATS Tox21 public data browser

For Nc1nnc(-c2cccc(Cl)c2Cl)c(N)n1 [Lamotrigine], the “tox21-ap1-agonist-p1-viability (curve rank)” value (shortened to “tox21-ap1-agonist-p1-viability”) [1] is given as 0, the “tox21-ar-mda-kb2-luc-agonist-p3-viability (curve rank)” value [2] is given as 0 and the “tox21-are-bla-p1-viability (curve rank)” value [3] is given as 0. The “tox21-ar-mda-kb2-luc-antagonist-p2-viability (curve rank)” value [4] was 0, the “tox21-car-antagonist-p1-viability (curve rank)” value [5] was 0 and the “tox21-car-agonist-p1-viability (curve rank)” value (from here on “tox21-car-agonist-p1-viability”) [6] was -0.67.

In the case of CC1Cc2ccccc2N1NC(=O)c1ccc(Cl)c(S(N)(=O)=O)c1 (stereo not drawn) [Indapamide], the “tox21-ap1-agonist-p1-viability” value [1] is given as 0, the “tox21-ar-mda-kb2-luc-agonist-p3-viability (curve rank)” value [2] is given as 0 and the “tox21-are-bla-p1-viability (curve rank)” value [3] is given as 0. For the same compound, the “tox21-ar-mda-kb2-luc-antagonist-p2-viability (curve rank)” value [4] was 0, the “tox21-car-antagonist-p1-viability (curve rank)” value [5] was 0 and the “tox21-car-agonist-p1-viability” value [6] was 0.

In the case of Nc1nc2ncc(CNc3ccc(C(=O)N[C@@H](CCC(=O)O)C(=O)O)cc3)nc2c(=O)[nH]1 [Folic acid], the “tox21-ap1-agonist-p1-viability” value [1] is listed as 0, the “tox21-ar-mda-kb2-luc-agonist-p3-viability (curve rank)” value [2] is listed as 0 and the “tox21-are-bla-p1-viability (curve rank)” value [3] is listed as 0. The “tox21-ar-mda-kb2-luc-antagonist-p2-viability (curve rank)” value [4] was 0, the “tox21-car-antagonist-p1-viability (curve rank)” value [5] was 0 and the “tox21-car-agonist-p1-viability” value [6] was 0.

In the case of CN1C(=O)CC(c2ccccc2)C1=O (stereo not drawn) [Phensuximide], the “tox21-ap1-agonist-p1-viability” value [1] is given as 0, the “tox21-ar-mda-kb2-luc-agonist-p3-viability (curve rank)” value [2] is given as 0 and the “tox21-are-bla-p1-viability (curve rank)” value [3] is given as 0. The “tox21-ar-mda-kb2-luc-antagonist-p2-viability (curve rank)” value [4] was 0, the “tox21-car-antagonist-p1-viability (curve rank)” value [5] was 0 and the “tox21-car-agonist-p1-viability” value [6] was 0.

For FC(F)(F)c1ccccc1-n1ccnc1 [1-[2-(Trifluoromethyl)phenyl]-1H-imidazole], the “tox21-ap1-agonist-p1-viability” value [1, 7] is listed as 0, the “tox21-ar-mda-kb2-luc-agonist-p3-viability (curve rank)” value [2, 7] is listed as 0 and the “tox21-are-bla-p1-viability (curve rank)” value [3, 7] is listed as 0. For the same compound, the “tox21-ar-mda-kb2-luc-antagonist-p2-viability (curve rank)” value [4, 7] was 0, the “tox21-car-antagonist-p1-viability (curve rank)” value [5, 7] was 0 and the “tox21-car-agonist-p1-viability” value [6, 7] was 0.

For Cc1oncc1C(=O)Nc1ccc(C(F)(F)F)cc1 [Leflunomide], the “tox21-ap1-agonist-p1-viability” value [1] is listed as 0, the “tox21-ar-mda-kb2-luc-agonist-p3-viability (curve rank)” value [2] is listed as 0 and the “tox21-are-bla-p1-viability (curve rank)” value [3] is listed as 0. The “tox21-ar-mda-kb2-luc-antagonist-p2-viability (curve rank)” value [4] was 0, the “tox21-car-antagonist-p1-viability (curve rank)” value [5] was 0 and the “tox21-car-agonist-p1-viability” value [6] was 0.

In the case of Cc1c(NC(C)C)c(=O)n(-c2ccccc2)n1C [Ramifenazone], the “tox21-ap1-agonist-p1-viability” value [1] is listed as 0, the “tox21-ar-mda-kb2-luc-agonist-p3-viability (curve rank)” value [2] is listed as 0 and the “tox21-are-bla-p1-viability (curve rank)” value [3] is listed as 0. The “tox21-ar-mda-kb2-luc-antagonist-p2-viability (curve rank)” value [4] was 0, the “tox21-car-antagonist-p1-viability (curve rank)” value [5] was 0 and the “tox21-car-agonist-p1-viability” value [6] was 0.

In the case of CCC1(c2cccc(O)c2)CCCCN(C)C1 (stereo not drawn) [Meptazinol hydrochloride], the “tox21-ap1-agonist-p1-viability” value [1, 7] is given as 0, the “tox21-ar-mda-kb2-luc-agonist-p3-viability (curve rank)” value [2, 7] is given as 0 and the “tox21-are-bla-p1-viability (curve rank)” value [3, 7] is given as 0. The “tox21-ar-mda-kb2-luc-antagonist-p2-viability (curve rank)” value [4, 7] was 0, the “tox21-car-antagonist-p1-viability (curve rank)” value [5, 7] was 0 and the “tox21-car-agonist-p1-viability” value [6, 7] was 0.

For CCN1CCC[C@H]1CNC(=O)c1c(OC)ccc(Br)c1OC [Remoxipride], the “tox21-ap1-agonist-p1-viability” value [1] is listed as 0, the “tox21-ar-mda-kb2-luc-agonist-p3-viability (curve rank)” value [2] is listed as 0 and the “tox21-are-bla-p1-viability (curve rank)” value [3] is listed as 0. For the same compound, the “tox21-ar-mda-kb2-luc-antagonist-p2-viability (curve rank)” value [4] was 0, the “tox21-car-antagonist-p1-viability (curve rank)” value [5] was 0 and the “tox21-car-agonist-p1-viability” value [6] was 0.

In the case of OCC(O)CN1CCN(c2ccccc2)CC1 (stereo not drawn) [Dropropizine], the “tox21-ap1-agonist-p1-viability” value [1, 7] is given as 0, the “tox21-ar-mda-kb2-luc-agonist-p3-viability (curve rank)” value [2, 7] is given as 0 and the “tox21-are-bla-p1-viability (curve rank)” value [3, 7] is given as 0. The “tox21-ar-mda-kb2-luc-antagonist-p2-viability (curve rank)” value [4, 7] was 0, the “tox21-car-antagonist-p1-viability (curve rank)” value [5, 7] was 0 and the “tox21-car-agonist-p1-viability” value [6, 7] was 0.

In the case of Cc1ncsc1CCCl [Clomethiazole], the “tox21-ap1-agonist-p1-viability” value [1, 7] is given as 0, the “tox21-ar-mda-kb2-luc-agonist-p3-viability (curve rank)” value [2, 7] is given as 0 and the “tox21-are-bla-p1-viability (curve rank)” value [3, 7] is given as 0. The “tox21-ar-mda-kb2-luc-antagonist-p2-viability (curve rank)” value [4, 7] was 0, the “tox21-car-antagonist-p1-viability (curve rank)” value [5, 7] was 0 and the “tox21-car-agonist-p1-viability” value [6, 7] was 0.

In the case of Nc1ccc(S(=O)(=O)Nc2ccnn2-c2ccccc2)cc1 [Sulfaphenazole], the “tox21-ap1-agonist-p1-viability” value [1] is listed as 0, the “tox21-ar-mda-kb2-luc-agonist-p3-viability (curve rank)” value [2] is listed as 0 and the “tox21-are-bla-p1-viability (curve rank)” value [3] is listed as 0. For the same compound, the “tox21-ar-mda-kb2-luc-antagonist-p2-viability (curve rank)” value [4] was 0, the “tox21-car-antagonist-p1-viability (curve rank)” value [5] was 0 and the “tox21-car-agonist-p1-viability” value [6] was 0.

For CCOC(=O)c1ncn2c1CN(C)C(=O)c1cc(F)ccc1-2 [Flumazenil], the “tox21-ap1-agonist-p1-viability” value [1] is listed as 0, the “tox21-ar-mda-kb2-luc-agonist-p3-viability (curve rank)” value [2] is listed as 0 and the “tox21-are-bla-p1-viability (curve rank)” value [3] is listed as 0. For the same compound, the “tox21-ar-mda-kb2-luc-antagonist-p2-viability (curve rank)” value [4] was 0, the “tox21-car-antagonist-p1-viability (curve rank)” value [5] was 0 and the “tox21-car-agonist-p1-viability” value [6] was 0.

For NC(Cc1ccc(Cl)cc1)C(=O)O (stereo not drawn) [Fenclonine], the “tox21-ap1-agonist-p1-viability” value [1] is listed as 0, the “tox21-ar-mda-kb2-luc-agonist-p3-viability (curve rank)” value [2] is listed as 0 and the “tox21-are-bla-p1-viability (curve rank)” value [3] is listed as 0. The “tox21-ar-mda-kb2-luc-antagonist-p2-viability (curve rank)” value [4] was 0, the “tox21-car-antagonist-p1-viability (curve rank)” value [5] was 0 and the “tox21-car-agonist-p1-viability” value [6] was 0.

For Cc1nc(C)c(Cl)c(O)c1Cl [Clopidol], the “tox21-ap1-agonist-p1-viability” value [1, 7] is given as -0.67, the “tox21-ar-mda-kb2-luc-agonist-p3-viability (curve rank)” value [2, 7] is given as 0 and the “tox21-are-bla-p1-viability (curve rank)” value [3, 7] is given as 0. The “tox21-ar-mda-kb2-luc-antagonist-p2-viability (curve rank)” value [4, 7] was 0, the “tox21-car-antagonist-p1-viability (curve rank)” value [5, 7] was 0 and the “tox21-car-agonist-p1-viability” value [6, 7] was 0.
